Test results reported in patent US11529323B2 (priority 2017, dated 2022).

Tests used:
[1] = system: serum cytokines; test: Serum cytokine panel, multiplex analysis, Study 2, tumor-free mice; type: in vivo, mouse; conditions: GTx-024 15 mg/kg p.o. qd, Day 17 sacrifice, mean ± SD
Procedure: This confirmatory study was performed exactly as Study 1 with expanded animal numbers. Tumor-free control groups were maintained at 6 animals each, whereas 10 animals were included in each of the tumor-bearing groups. […] Grip strength was measured on study days 0 (baseline) and 16. Due to rapid model progression, this study was terminated after only 12 days of treatment.
Serum cytokine panel analyses were performed by a commercial vendor (Eve Technologies, Calgary, Canada) as previously described. Serum interleukin-6 (IL-6) was measured using a commercial ELISA kit (R&D Systems, Minneapolis, Minn., USA) according to the manufacturer's instructions.

[2] = system: luteinizing hormone; test: Serum luteinizing hormone radioimmunoassay, Study 1; type: in vivo, mouse; conditions: Study 1, Day 18; C-26 tumor bearing mice; GTx-024 15 mg/kg
Procedure: FIG. 9A is a bar graph showing serum luteinizing hormone levels measured on Day 18. FIG. 9B is a graph showing per animal food consumption measured every two days. FIG. 9C is a plot showing spleen weights normalized to tumor mass-corrected terminal body weight. […], versus tumor-bearing vehicle-treated controls, Dunnett's multiple comparison test.
Luteinizing hormone (LH) was measured in serum by a two-site sandwich radioimmunoassay performed by the Ligand Assay and Analysis Core at the Center for Research in Reproduction, University of Virginia School of Medicine (Charlottesville, Va.). Serum was isolated by centrifugation (2000×g, 15 minutes) from whole blood samples collected from mice immediately post-mortem, and then stored at −80° C. until shipment on dry ice.

C[C@](O)(COc1ccc(C#N)cc1)C(=O)Nc1ccc(C#N)c(C(F)(F)F)c1 [GTx-024, (2S)-3-(4-cyanophenoxy)-N-(4-cyano-3-(trifluoromethyl)phenyl)-2-hydroxy-2-methylpropanamide]
Eotaxin, serum [1]: 669.53 ± 100.70 pg/mL
G-CSF, serum [1]: 338.39 ± 71.70 pg/mL
GM-CSF, serum [1]: 13.27 ± 4.62 pg/mL
IFNg, serum [1]: 5.93 ± 2.14 pg/mL
IL12 (p40), serum [1]: 22.48 ± 13.42 pg/mL
IL-1a, serum [1]: 60.41 ± 56.12 pg/mL
IL-1b, serum [1]: 14.65 ± 5.66 pg/mL
IL-2, serum [1]: 15.43 ± 6.56 pg/mL
IL-3, serum [1]: 1.10 ± 0.63 pg/mL
IL-4, serum [1]: 0.48 ± 0.37 pg/mL
IL-5, serum [1]: 5.71 ± 3.26 pg/mL
IL-6, serum [1]: 2.45 ± 1.31 pg/mL
IL-7, serum [1]: 11.51 ± 11.06 pg/mL
IL-9, serum [1]: 8.02 ± 6.78 pg/mL
IL-10, serum [1]: 2.38 ± 1.13 pg/mL
IL-12 (p70), serum [1]: 10.83 ± 6.12 pg/mL
IL-13, serum [1]: 29.87 ± 12.81 pg/mL
IL-15, serum [1]: 131.33 ± 70.97 pg/mL
IL-17, serum [1]: 5.01 ± 1.18 pg/mL
IP-10, serum [1]: 145.68 ± 48.83 pg/mL
KC, serum [1]: 90.02 ± 17.69 pg/mL
LIF, serum [1]: 2.50 ± 2.34 pg/mL
LIX, serum [1]: 1316.67 ± 1662.66 pg/mL
M-CSF, serum [1]: 27.23 ± 10.09 pg/mL
MCP-1, serum [1]: 54.54 ± 7.47 pg/mL
MIG, serum [1]: 89.29 ± 41.83 pg/mL
MIP-1a, serum [1]: 75.46 ± 29.41 pg/mL
MIP-1b, serum [1]: 87.69 ± 10.61 pg/mL
MIP-2, serum [1]: 136.75 ± 47.91 pg/mL
RANTES, serum [1]: 20.84 ± 10.38 pg/mL
TNFa, serum [1]: 12.15 ± 4.24 pg/mL
VEGF, serum [1]: 0.87 ± 0.32 pg/mL
serum luteinizing hormone [2]: suppression of serum luteinizing hormone
